In ChEMBL document CHEMBL1130061, “Discovery and biological activity of orally active peptidyl trifluoromethyl ketone inhibitors of human neutrophil elastase” (J Med Chem, 1997):
Numbered stars: 1 amine (or outer) side, 2 acyl side, 3 side chain; on linkers, the order of the positions; unused ones are H or OH. Square brackets hold non-standard residues; d marks the D form. Peptide text beside a SMILES is read from it. * marks the point of attachment. ξ: configuration not given here. 4Abz = Nc1ccc(C(=O)O)cc1; CO = O=C([*:1])[*:2]; ξV = CC(C)C(N)C(=O)O; ξP = O=C(O)C1CCCN1; CF3 = FC(F)(F)*

Tests used:
Mesocricetus auratus [1] = assay: Oral administration at a dose of 37.5 mg/kg 30 min prior to HNE and reduction in the number of white blood cells was reported
Mesocricetus auratus [2] = organism: Mesocricetus auratus; assay: Reduction in wet lung weight relative to the body weight in hamsters
Neutrophil elastase = biological target: T1, Neutrophil elastase (Homo sapiens, UniProt P08246); assay: Inhibitory activity against Human Neutrophil Elastase by HNE-catalyzed hydrolysis of MeO-Suc-Ala-Ala-Pro-Val-pNa
T1 sequence (P08246 whole entry): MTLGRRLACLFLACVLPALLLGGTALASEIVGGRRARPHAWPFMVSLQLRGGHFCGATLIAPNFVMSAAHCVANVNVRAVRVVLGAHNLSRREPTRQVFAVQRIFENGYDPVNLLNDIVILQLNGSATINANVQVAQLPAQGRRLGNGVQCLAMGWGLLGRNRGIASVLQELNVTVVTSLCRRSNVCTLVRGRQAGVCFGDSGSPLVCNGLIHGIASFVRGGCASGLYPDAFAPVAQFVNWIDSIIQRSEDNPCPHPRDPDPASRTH

Mesocricetus auratus [3] = assay: Oral administration at a dose of 37.5 mg/kg 30 min prior to HNE (100 mg/hamster) and reduction in the number of white blood cells was reported

Ki (Neutrophil elastase) [nM]	Structure (SMILES)	Reduction (Mesocricetus auratus [1]) [%]	Lw/Bw (Mesocricetus auratus [2])	Reduction (Mesocricetus auratus [3]) [%]
3.9	CC(C)[C@H](NC(=O)c1ccc(O)cc1)C(=O)N1CCC[C@H]1C(=O)N[C@H](C(=O)C(F)(F)F)C(C)C	28	35	
1	Cc1ccc(C(=O)N[C@H](C(=O)N2CCC[C@H]2C(=O)N[C@H](C(=O)C(F)(F)F)C(C)C)C(C)C)cc1C	55	75	
810	CC(C)[C@H](NC(=O)C(=O)O)C(=O)N1CCC[C@H]1C(=O)N[C@H](C(=O)C(F)(F)F)C(C)C	38	2	
16	CC(C)[C@H](NC(=O)c1ccc(O)c(O)c1)C(=O)N1CCC[C@H]1C(=O)N[C@H](C(=O)C(F)(F)F)C(C)C		-73	-41
0.63	CC(C)[C@H](NC(=O)Oc1ccc(F)cc1)C(=O)N1CCC[C@H]1C(=O)N[C@H](C(=O)C(F)(F)F)C(C)C		63	-67
150	CC(C)[C@H](NS(=O)(=O)C(F)(F)F)C(=O)N1CCC[C@H]1C(=O)N[C@H](C(=O)C(F)(F)F)C(C)C	17	20	
2.9	CC(C)[C@H](NC(=O)c1ccc(F)cc1)C(=O)N1CCC[C@H]1C(=O)N[C@H](C(=O)C(F)(F)F)C(C)C	22	44	
63	CC(C)[C@H](NC(=O)c1c[nH]cn1)C(=O)N1CCC[C@H]1C(=O)N[C@H](C(=O)C(F)(F)F)C(C)C		-42	-267
11	CC(C)[C@H](NC(=O)Nc1ccc(F)cc1)C(=O)N1CCC[C@H]1C(=O)N[C@H](C(=O)C(F)(F)F)C(C)C	8	-3	
20	CC(C)[C@H](NC(=O)c1ccccn1)C(=O)N1CCC[C@H]1C(=O)N[C@H](C(=O)C(F)(F)F)C(C)C	44	8	
3.8	CC(C)[C@H](NC(=O)c1ccncc1)C(=O)N1CCC[C@H]1C(=O)N[C@H](C(=O)C(F)(F)F)C(C)C		-15	-45
14	CC(C)[C@H](NS(=O)(=O)c1ccccc1)C(=O)N1CCC[C@H]1C(=O)N[C@H](C(=O)C(F)(F)F)C(C)C		29	-48
6.1	CC(C)C(NC(=O)C1CCCN1C(=O)[C@@H](NC(=O)CCC(=O)NS(=O)(=O)c1cccc2ccccc12)C(C)C)C(=O)C(F)(F)F (some centres undefined)		-80	-212
5.4	CC(C)C(NC(=O)C1CCCN1C(=O)[C@@H](NC(=O)c1ccc(C(=O)NCCN(C)C)cc1)C(C)C)C(=O)C(F)(F)F (some centres undefined)	71	20	
8	COc1ccc(S(=O)(=O)N[C@H](C(=O)N2CCCC2C(=O)NC(C(=O)C(F)(F)F)C(C)C)C(C)C)cc1 (some centres undefined)		29	-42
43	CC(C)C(NC(=O)C1CCCN1C(=O)[C@@H](NC(=O)c1cc(C(=O)O)cc(C(=O)O)c1)C(C)C)C(=O)C(F)(F)F (some centres undefined)		-45	-105
1.2	CC(C)C(NC(=O)C1CCCN1C(=O)[C@@H](NS(=O)(=O)C12CC3CC(CC(C3)C1)C2)C(C)C)C(=O)C(F)(F)F (some centres undefined)	61	-36	
4.2	CC(C)C(NC(=O)C1CCCN1C(=O)[C@@H](NC(=O)c1ccc(C(=O)NS(C)(=O)=O)cc1)C(C)C)C(=O)C(F)(F)F (some centres undefined)	43	-9	
55	CC(=O)Nc1ccc(S(=O)(=O)N[C@H](C(=O)N2CCCC2C(=O)NC(C(=O)C(F)(F)F)C(C)C)C(C)C)cc1 (some centres undefined)	32	2	
1.6	CC(C)C(NC(=O)C1CCCN1C(=O)[C@@H](NS(=O)(=O)c1c(F)c(F)c(F)c(F)c1F)C(C)C)C(=O)C(F)(F)F (some centres undefined)	27	-24	
11	COC(=O)c1cc(C(=O)N[C@H](C(=O)N2CCCC2C(=O)NC(C(=O)C(F)(F)F)C(C)C)C(C)C)cc(C(=O)OC)c1 (some centres undefined)	6	6	
	CC(C)C(NC(=O)c1ccc(C(=O)NS(=O)(=O)c2ccc(Br)cc2)cc1)C(=O)N1CCC[C@H]1C(=O)N[C@H](C(=O)C(F)(F)F)C(C)C (some centres undefined)	30	-0.5	
1.8	CC(C)C(NC(=O)C1CCCN1C(=O)[C@@H](NC(=O)/C=C/c1ccc(C(=O)O)cc1)C(C)C)C(=O)C(F)(F)F (some centres undefined)	68	13	

Ki (Neutrophil elastase) [nM]	Structure (SMILES)	Reduction (Mesocricetus auratus [1]) [%]	Lw/Bw (Mesocricetus auratus [2])	Reduction (Mesocricetus auratus [3]) [%]
1.7	CC(C)C(NC(=O)C1CCCN1C(=O)[C@H](C(C)C)N(CCCc1ccccc1)CCCc1ccccc1)C(=O)C(F)(F)F.Cl (some centres undefined)		-23	-39
3.3	CC(C)C(NC(=O)C1CCCN1C(=O)[C@@H](NS(=O)(=O)c1ccc(Cl)cc1)C(C)C)C(=O)C(F)(F)F (some centres undefined)	7	-41	
2.3	CSc1ccc(C(=O)N[C@H](C(=O)N2CCCC2C(=O)NC(C(=O)C(F)(F)F)C(C)C)C(C)C)cc1 (some centres undefined)	36	20	
3.2	CC(C)c1cc(C(C)C)c(S(=O)(=O)N[C@H](C(=O)N2CCCC2C(=O)NC(C(=O)C(F)(F)F)C(C)C)C(C)C)c(C(C)C)c1 (some centres undefined)		-17	-186
2.7	CC(C)C(NC(=O)C1CCCN1C(=O)[C@@H](NS(=O)(=O)c1ccc2ccccc2c1)C(C)C)C(=O)C(F)(F)F (some centres undefined)	20		
0.43	CCOC(=O)c1ccc(/C=C/C(=O)N[C@H](C(=O)N2CCCC2C(=O)NC(C(=O)C(F)(F)F)C(C)C)C(C)C)cc1 (some centres undefined)		-122	-48
1.7	CC(C)C(NC(=O)C1CCCN1C(=O)[C@@H](NC(=O)c1cc2ccccc2cc1C(=O)O)C(C)C)C(=O)C(F)(F)F (some centres undefined)	53	23	
60	CC(=O)Oc1cc(OC(C)=O)cc(C(=O)N[C@H](C(=O)N2CCCC2C(=O)NC(C(=O)C(F)(F)F)C(C)C)C(C)C)c1 (some centres undefined)			-12
0.41	CC(C)C(NC(=O)C1CCCN1C(=O)[C@@H](NC(=O)c1ccc(Oc2ccccc2)cc1)C(C)C)C(=O)C(F)(F)F (some centres undefined)	78	31	
1.1	COc1ccc(C(=O)N[C@H](C(=O)N2CCCC2C(=O)NC(C(=O)C(F)(F)F)C(C)C)C(C)C)cc1OC (some centres undefined)	46	66	
2.5	CC(C)C(NC(=O)C1CCCN1C(=O)[C@@H](NC(=O)c1ccc(N(C)C)cc1)C(C)C)C(=O)C(F)(F)F (some centres undefined)	0	36	
0.87	CC(C)C(NC(=O)C1CCCN1C(=O)[C@@H](NC(=O)c1ccc2ccccc2c1)C(C)C)C(=O)C(F)(F)F (some centres undefined)	73	43	
15	COc1cccc(OC)c1C(=O)N[C@H](C(=O)N1CCCC1C(=O)NC(C(=O)C(F)(F)F)C(C)C)C(C)C (some centres undefined)	177	20	
1.8	COC(=O)c1ccc(C(=O)N[C@H](C(=O)N2CCCC2C(=O)NC(C(=O)C(F)(F)F)C(C)C)C(C)C)cc1 (some centres undefined)	56	49	
1.2	CC(C)C(NC(=O)C1CCCN1C(=O)[C@@H](NC(=O)c1ccc([N+](=O)[O-])cc1)C(C)C)C(=O)C(F)(F)F (some centres undefined)	4	54	
2	CC(C)C(NC(=O)C1CCCN1C(=O)[C@@H](NC(=O)c1ccc(S(C)(=O)=O)cc1)C(C)C)C(=O)C(F)(F)F (some centres undefined)	58	-16	
5.2	CC(C)C(NC(=O)C1CCCN1C(=O)[C@@H](NS(=O)(=O)c1ccc([N+](=O)[O-])cc1)C(C)C)C(=O)C(F)(F)F (some centres undefined)		-36	-118
15	CC(C)[C@H](NC(=O)C(F)(F)F)C(=O)N1CCC[C@H]1C(=O)N[C@H](C(=O)C(F)(F)F)C(C)C (HELM PEPTIDE1{[O=C(C(F)(F)F)[*:2]].V.P.V.[FC(F)(F)[*:1]]}$$$$V2.0)	91	67	
	CC(C)[C@H](NC(=O)OCc1ccccc1)C(=O)N1CCC[C@H]1C(=O)N[C@H](C(=O)C(F)(F)F)C(C)C (HELM PEPTIDE1{[O=C(OCc1ccccc1)[*:2]].V.P.V.[FC(F)(F)[*:1]]}$$$$V2.0)	38	53	
7.8	CC(C)[C@H](NC(=O)c1cccnc1)C(=O)N1CCC[C@H]1C(=O)N[C@H](C(=O)C(F)(F)F)C(C)C (HELM PEPTIDE1{[O=C(c1cccnc1)[*:2]].V.P.V.[FC(F)(F)[*:1]]}$$$$V2.0)	23	-6	
2	CCCN(CC(=O)N[C@H](C(=O)N1CCC[C@H]1C(=O)N[C@H](C(=O)C(F)(F)F)C(C)C)C(C)C)C(C)=O (HELM PEPTIDE1{[ac].[CCCN(CC(=O)[*:2])[*:1]].V.P.V.[FC(F)(F)[*:1]]}$$$$V2.0)	78	24	
0.96	CC(=O)N(CC(=O)N[C@H](C(=O)N1CCC[C@H]1C(=O)N[C@H](C(=O)C(F)(F)F)C(C)C)C(C)C)Cc1ccccc1 (HELM PEPTIDE1{[ac].[O=C(CN(Cc1ccccc1)[*:1])[*:2]].V.P.V.[FC(F)(F)[*:1]]}$$$$V2.0)	36	20	
10	CC(C)C(NC(=O)C1CCCN1C(=O)[C@@H](NC(=O)Nc1ccc(C(=O)O)cc1)C(C)C)C(=O)C(F)(F)F (some centres undefined) ({4Abz-CO}-Val-[ξP]-[ξV]-CF3)	48	-1	
